Reference: article PMC10287566, “Signaling-specific inhibition of the CB1 receptor for cannabis use disorder: phase 1 and phase 2a randomized trials” (Nature Medicine, 2023)

How the values were obtained:
DIO mice = test: Food intake and body weight in diet-induced obese mice, repeated treatment; type: in vivo
Method: Body weight and food intake were studied because they are reduced by repeated treatment with rimonabant both in mice[31] and in humans. DIO mice were used because the effects of CB1 antagonists are of greater amplitude in obese mice than in lean mice. Male C57BL/6J mice (8 weeks old) were fed ad libitum with a high-fat diet (HFD) for 8 weeks before the start of the pharmacological treatments. During pharmacological treatments, the HFD was maintained, and food intake and body weight were measured daily. The food consumed was calculated by subtracting the food left in the hoppers from the initial pre-weighed amount.

mice [1] = test: Precipitated withdrawal in THC-dependent mice; type: in vivo
Method: From day 1 to days 4–5, mice were injected i.p. with vehicle or THC (20 mg kg^−1) twice per day. On the last day of treatment, mice in the THC group received rimonabant or AEF0117. All other animals received the respective vehicle. […] For the measure of precipitated withdrawal, mice were placed in a novel home cage, and a video camera was positioned in front of each cage to record behavior. Scoring was performed for 1 min every 5-min period. Two withdrawal signs were analyzed—paw tremors and head shaking—because they are the most common signs of THC withdrawal observed in mice[14].

mice [2] = test: Anxiety-related behavior, elevated plus maze, repeated treatment; type: in vivo
From the text: (§1) Anxiety-like behaviors were studied in the elevated plus maze (EPM), a rodent model used to evaluate the putative anxiogenic or anxiolytic effects of pharmacological compounds. Depression-related behaviors were studied using the sucrose preference test as a model of anhedonia, one of the cardinal symptoms of depression.
The EPM apparatus comprises four elevated arms arranged in a cross-like shape, with the two opposite arms enclosed by walls and the other two arms open. For all experiments, mice were placed in the center of the EPM and were free to explore the maze for 5 min after receiving the treatment. The time spent and the number of entries into the open and closed arms were measured by an automatic video tracking system (EthoVision XT version 12, Noldus Information Technology). A decrease in the percentage of visits and/or the time spent in open arms is considered an index of increased anxiety.
(§2) The EPM assessment was done on day 26, and the sucrose preference test was done on day 28.

mice [3] = test: Depression-related behavior, sucrose preference test, repeated treatment; type: in vivo
From the text: as §1
The sucrose preference test was done in the home cage. Two identical bottles, one containing water and the other containing a 2% sucrose solution, were placed in the hopper of each cage. The mice had unlimited access to water and sucrose solutions during the active phase—the dark phase of the light/dark cycle that started at 20:00. The volume of water and of sucrose solution consumed was measured over two […] intervals, the first between 19:00 and 20:30 and the second between 20:30 and 22:00. At each timepoint, the bottles were weighed, and the intake volume was calculated by subtracting the […].
as §2

mice [4] = test: Glucocorticoid (corticosterone) secretion in mice; type: in vivo; details: glucocorticoid, 10 mg/kg the known ID100
Method: Blood sampling was performed 2, 5, 8 and 24 h after dosing (n = 3 per sex per dose per sampling time). For blood sampling, mice were anaesthetized under isoflurane, and blood was collected by cardiac puncture. Blood was centrifuged, and plasma was taken and frozen at −80 °C until quantifications of corticosterone by GC–MS/MS.

mice [5] = test system: mice; set-up: method as in earlier work; details: 10 mg/kg, not run in parallel; cited from earlier work

Overall effect: precipitated withdrawal in THC-dependent mice (mice [1]; highest dose tested 10 mg/kg, run in parallel): Yes
N fold ID100 at highest dose tested (mice [1]; withdrawal, 10 mg/kg the known ID100): 1
N fold ID100 at highest dose tested (mice [2]; anxiety, 10 mg/kg the known ID100): 1
Overall effect: increase in anxiety-related behaviors (mice [2]; mice, elevated plus maze, highest dose tested 10 mg/kg, run in parallel): Yes
N fold ID100 at highest dose tested (mice [3]; depression, 10 mg/kg the known ID100): 1
Overall effect: increase in depression-related behaviors (mice [3]; mice, sucrose preference test, highest dose tested 10 mg/kg, run in parallel): Yes
N fold ID100 at highest dose tested (mice [4]): 1
SMILES: Cc1c(C(=O)NN2CCCCC2)nn(-c2ccc(Cl)cc2Cl)c1-c1ccc(Cl)cc1 [rimonabant, Rimonabant]
body weight in DIO mice vs vehicle (DIO mice; 10 mg/kg): decreased
N fold ID100 at highest dose tested (DIO mice; food-intake, 10 mg/kg the known ID100): 1
Overall effect: inhibition of spontaneous food-intake (DIO mice; mice, highest dose tested 10 mg/kg, run in parallel): Yes
Overall effect: increase in glucocorticoid secretion (mice [5]): Yes
